Test results from PubChem BioAssay (NCI).
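A five-concentration, 48-hour dose response in 96-well plates underlies each endpoint, interpolated linearly between surrounding concentrations. TGI: total growth inhibition.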 Where a SMILES comes first, the peptide text is derived from it. [ ]: non-standard residue; d: D form. The star is where a group is joined. X28 = COC1=CC(=O)N(C(=O)[C@@H](O*)C(C)C)[C@H]1Cc1ccccc1; NMeL = CN[C@@H](CC(C)C)C(=O)O; Hexanoyl = CCCCCC(=O)*; Boc = CC(C)(C)OC(=O)*; OBn = c1ccc(CO*)cc1; Bn = c1ccc(C*)cc1

Legend:
Experiment in all cases: NCI tumour cell line growth inhibition, 48 h
[1] = tested on: UO-31 renal
[2] = tested on: NCI-H226 lung
[3] = tested on: OVCAR-5 ovarian
[4] = tested on: SK-MEL-5 melanoma
[5] = tested on: U251 CNS
[6] = tested on: HT29 colon
[7] = tested on: HCT-15 colon
[8] = tested on: CCRF-CEM leukemia
[9] = tested on: M14 melanoma
[10] = tested on: EKVX NSCLC
[11] = tested on: MDA-N

Structure (SMILES)	TGI [1]	TGI [2]	TGI [3]	TGI [4]	TGI [5]	TGI [6]	TGI [7]	TGI [8]	TGI [9]	TGI [10]	TGI [11]
Cc1cc(SCC(=O)c2ccc(Br)cc2)cc(C)[o+]1	83.9 µM	95.5 µM	69.9 µM	35.9 µM	90 µM	65.2 µM	> 100 µM	44 µM	79.1 µM	39.9 µM	> 100 µM
Brc1ccc(-c2ccc(-c3ccc(Br)s3)s2)s1	> 100 µM	> 100 µM	> 100 µM	> 100 µM	> 100 µM	> 100 µM	> 100 µM	> 100 µM	> 100 µM	> 100 µM	> 100 µM
COc1ccc2c(c1)CCC(CN1CCN(CCOC(c3ccc(F)cc3)c3ccc(F)cc3)CC1)=C2	–	30.6 µM	97.4 µM	18.5 µM	42.9 µM	32.4 µM	57.8 µM	> 100 µM	27.4 µM	29.6 µM	47.2 µM
Fc1ccc(C(=NCc2ccccc2)N2CCOCC2)cc1	> 100 µM	> 100 µM	> 100 µM	> 100 µM	> 100 µM	> 100 µM	> 100 µM	> 100 µM	> 100 µM	> 100 µM	> 100 µM
N#Cc1ccc(Nc2nc3nc[nH]c3c(=O)[nH]2)cc1	> 100 µM	> 100 µM	> 100 µM	> 100 µM	> 100 µM	> 100 µM	> 100 µM	> 100 µM	> 100 µM	> 100 µM	> 100 µM
c1ccc(/C(=N/Nc2cnccn2)c2ncccn2)cc1	> 100 µM	–	> 100 µM	> 100 µM	> 100 µM	> 100 µM	> 100 µM	> 100 µM	> 100 µM	> 100 µM	> 100 µM
Cc1ccc(Nc2ncnc3sc(SCc4ccccc4)nc23)cc1	> 100 µM	> 100 µM	> 100 µM	> 100 µM	> 100 µM	> 100 µM	> 100 µM	> 100 µM	> 100 µM	> 100 µM	> 100 µM
O=C(O)CCCN1CCCCC1	> 100 µM	> 100 µM	> 100 µM	> 100 µM	> 100 µM	> 100 µM	> 100 µM	> 100 µM	> 100 µM	> 100 µM	> 100 µM
O=c1[nH]c2ccc(CC(=S)N3CCN(c4ccccc4)CC3)cc2s1	–	69.6 µM	84.5 µM	–	21.2 µM	> 100 µM	> 100 µM	> 100 µM	> 100 µM	> 100 µM	> 100 µM
Cc1[nH]n(C(=O)c2ccccc2O)c(=O)c1/C=C1\C(=O)C=Cc2ccccc21	13.2 µM	8.57 µM	> 64.9 µM	4.26 µM	40.7 µM	> 81 µM	> 100 µM	> 36.4 µM	4.63 µM	19.4 µM	> 100 µM
COC(=O)CCCc1ccc2c(c1)CCC2	> 100 µM	> 100 µM	> 100 µM	> 100 µM	> 100 µM	–	> 100 µM	> 100 µM	> 100 µM	–	> 100 µM
CCOC(=O)Nc1ccc(S(=O)(=O)Nc2ccc(Br)cc2)cc1	> 100 µM	–	> 100 µM	88.7 µM	> 100 µM	> 100 µM	> 100 µM	> 100 µM	> 100 µM	89.5 µM	> 100 µM
C=C(C)C1CC2=C(C(=O)OC)C=C(O2)C(C(=C)C)[C@@H]2OC(=O)/C(=C\C1O)[C@H]2N(C)C (stereo partly drawn)	26.4 µM	21.7 µM	38 µM	27.9 µM	33 µM	> 100 µM	22.5 µM	5.4 µM	29.7 µM	29 µM	25.8 µM
C(=N\NC1=NCCCN1)/c1ccc(-c2cn3cc(/C=N/NC4=NCCCN4)ccc3n2)cc1	> 100 µM	> 100 µM	> 100 µM	> 100 µM	> 100 µM	> 71.7 µM	> 100 µM	> 66.2 µM	> 100 µM	> 100 µM	> 100 µM
CC(=O)C1=CC=C/C1=N\Nc1ccccc1	25.8 µM	39.8 µM	19.7 µM	29.8 µM	9.36 µM	11.5 µM	19.2 µM	11.2 µM	22.7 µM	23 µM	19.2 µM
COc1ccc(N=NN2CCCC2)cc1	> 100 µM	> 100 µM	> 100 µM	> 100 µM	> 100 µM	> 100 µM	60.7 µM	56.6 µM	> 100 µM	58.8 µM	39.8 µM
NC(=O)c1cc2ccccc2c(N=Nc2ccccc2)c1O	> 100 µM	> 100 µM	> 100 µM	> 100 µM	49.2 µM	> 100 µM	> 100 µM	> 100 µM	> 100 µM	> 100 µM	> 100 µM
Cc1nc2c(=O)[nH]c(=O)nc-2n(CCO)c1C	> 100 µM	> 100 µM	> 100 µM	> 100 µM	> 100 µM	> 100 µM	> 100 µM	> 100 µM	> 100 µM	> 100 µM	> 100 µM
N=C(/C=C/c1ccc(-c2cn3cc(/C=C/C(=N)N4CCOCC4)ccc3n2)cc1)N1CCOCC1	> 100 µM	> 100 µM	> 100 µM	> 100 µM	> 100 µM	–	> 100 µM	–	> 100 µM	> 100 µM	> 100 µM
COc1ccccc1NC(=S)N/N=C(/c1ccccc1)c1ccccn1	14.1 µM	8.64 µM	13.2 µM	6.44 µM	14.9 µM	21 µM	20.3 µM	9.54 µM	9.52 µM	5.46 µM	21.5 µM

Structure (SMILES)	TGI [1]	TGI [2]	TGI [3]	TGI [4]	TGI [5]	TGI [6]	TGI [7]	TGI [8]	TGI [9]	TGI [10]	TGI [11]
CC(C)(C)[Si](C)(C)OCC1OC(n2ccc(=O)[nH]c2=O)C(O[Si](C)(C)C(C)(C)C)/C1=N/O (stereo not drawn)	14.5 µM	9.24 µM	18.6 µM	6.07 µM	23.4 µM	9.82 µM	12.1 µM	27.3 µM	12 µM	16.1 µM	> 36.2 µM
C[N+](C)(C)CCCCCc1c2nc(c(CCCCC[N+](C)(C)C)c3ccc([nH]3)c(CCCCC[N+](C)(C)C)c3ccc([nH]3)c(CCCCC[N+](C)(C)C)c3nc1C=C3)C=C2	> 100 µM	> 100 µM	> 100 µM	> 100 µM	> 100 µM	> 100 µM	> 100 µM	> 100 µM	> 100 µM	> 100 µM	> 100 µM
COc1ccc(OC)c2c1C[C@@H]1C(C#N)N3[C@H](Cc4c(OC)ccc(OC)c4[C@@H]3C)C(=O)N1[C@H]2C (stereo partly drawn)	4.54 µM	40.9 µM	23.7 µM	3.25 µM	4.91 µM	30.4 µM	11.2 µM	6.75 µM	8.54 µM	20.5 µM	22 µM
CC(C)(C)NCC(O)COc1cccc2[nH]c(C#N)cc12 (stereo not drawn)	> 100 µM	> 100 µM	> 100 µM	> 100 µM	> 100 µM	> 100 µM	> 100 µM	–	> 100 µM	> 100 µM	> 100 µM
CC1(c2cccc(C3CCC4(C=CC3=O)OCCO4)c2)OCCO1 (stereo not drawn)	12.7 µM	49.2 µM	32.2 µM	28 µM	33.8 µM	25.8 µM	14.7 µM	10.5 µM	20.1 µM	37.5 µM	25.2 µM
COC(=O)c1c(C)nc(C)c(N=O)c1-c1ccccc1C(F)(F)F	37.1 µM	43.2 µM	51.4 µM	89.4 µM	34.5 µM	29.1 µM	45.8 µM	> 100 µM	47.1 µM	> 100 µM	43.6 µM
CCCCc1cc2c(cc1O)CCC1C2CC[C@@]2(C)C1CC[C@@H]2O (stereo partly drawn)	38 µM	40.6 µM	36.5 µM	39.2 µM	64.7 µM	50.3 µM	> 100 µM	56.7 µM	41.7 µM	33.6 µM	51.2 µM
Cc1cc2nc3c(C#N)c(-c4ccccc4)/c(=C\Nc4cccc(C(F)(F)F)c4)c(=O)n3c2cc1C	> 100 µM	> 100 µM	> 100 µM	> 100 µM	> 100 µM	–	> 100 µM	> 100 µM	> 100 µM	> 100 µM	> 100 µM
NC12c3c4cccc3Oc3cccc(c31)Oc1cccc(c12)O4	> 50 µM	> 50 µM	> 50 µM	–	> 50 µM	> 50 µM	> 50 µM	> 50 µM	> 50 µM	> 50 µM	> 50 µM
COc1cccc(-n2nnc3c(N)nc(N)nc32)c1	–	> 100 µM	> 100 µM	> 100 µM	> 100 µM	> 100 µM	> 100 µM	> 100 µM	> 100 µM	> 100 µM	> 100 µM
COc1cc(O)c(C(=O)/C=C/c2ccc(O)cc2)cc1Oc1ccc(C(=O)/C=C/c2ccc(O)cc2)c(O)c1	7.06 µM	–	5.6 µM	4.19 µM	4.97 µM	2.66 µM	3.68 µM	33.8 µM	12.7 µM	5.68 µM	12.1 µM
CCCCc1ccc(N2C(=O)c3cc(C)cnc3S2(=O)=O)cc1	> 100 µM	> 100 µM	> 100 µM	> 100 µM	> 100 µM	> 100 µM	> 100 µM	–	> 100 µM	> 100 µM	> 100 µM
CC1CCN(c2nnc(Cl)cc2C(=O)c2ccccc2)CC1	> 100 µM	–	> 100 µM	31.1 µM	> 100 µM	39.5 µM	> 100 µM	45.9 µM	95.5 µM	> 100 µM	53.2 µM
COc1ccc2cc(C(=O)NCCc3ccccc3)ccc2c1OC	–	> 100 µM	> 100 µM	> 100 µM	> 100 µM	> 100 µM	> 100 µM	–	> 100 µM	> 100 µM	> 100 µM
CC(C)CC(NC(=O)C(Cc1ccccc1)NC(=O)C(COCc1ccccc1)NC(=O)OC(C)(C)C)C(=O)OCc1ccccc1 (stereo not drawn) (Boc-Ser(Bn)-Phe-Leu-OBn; configuration not given here)	> 100 µM	–	> 100 µM	–	53.2 µM	43.9 µM	76 µM	63.7 µM	> 100 µM	61.5 µM	> 100 µM
CC(=O)OCc1ccc(-c2nc(C#N)c(N)o2)o1	> 10 µM	> 10 µM	–	> 10 µM	–	> 10 µM	> 10 µM	> 10 µM	> 10 µM	> 10 µM	> 10 µM
CC1(C)OC1CC/C(=C/CBr)CBr (stereo not drawn)	28.9 µM	48.4 µM	31.5 µM	27.5 µM	29.3 µM	30 µM	–	34.1 µM	36.5 µM	33.3 µM	29.3 µM
O=[N+]([O-])c1ccccc1S(=O)(=O)N1CCCc2cc(Cl)ccc21	> 100 µM	> 100 µM	> 100 µM	> 100 µM	–	51.3 µM	> 100 µM	> 100 µM	> 100 µM	> 100 µM	> 48.2 µM
Nc1nc(Cl)cc(NCC2(CO)CC(CCCCc3ccccc3)C2)n1 (stereo not drawn)	–	> 100 µM	> 100 µM	> 100 µM	> 100 µM	35.3 µM	> 100 µM	> 100 µM	> 100 µM	> 100 µM	> 100 µM
CCCCCC(=O)N[C@H](C(=O)N[C@H](C(=O)N(C)[C@@H](CC(C)C)C(=O)N1CCC[C@H]1C(=O)N1CCC[C@H]1C(=O)O[C@H](C(=O)N1C(=O)C=C(OC)[C@@H]1Cc1ccccc1)C(C)C)C(C)C)C(C)C (Hexanoyl-VV[NMeL]PP-X28)	–	> 100 µM	> 100 µM	–	> 100 µM	> 100 µM	> 100 µM	> 100 µM	> 48.1 µM	> 100 µM	> 100 µM
